Target: T1, MeCP2-TBL1 interaction (MeCP2-SmBiT / TBL1-LgBiT) (Mus musculus, UniProt Q9QXE7)
T1 construct: expressed in transfected cells; crude lysate used as a cell-free assay
T1 sequence (Q9QXE7 166-527): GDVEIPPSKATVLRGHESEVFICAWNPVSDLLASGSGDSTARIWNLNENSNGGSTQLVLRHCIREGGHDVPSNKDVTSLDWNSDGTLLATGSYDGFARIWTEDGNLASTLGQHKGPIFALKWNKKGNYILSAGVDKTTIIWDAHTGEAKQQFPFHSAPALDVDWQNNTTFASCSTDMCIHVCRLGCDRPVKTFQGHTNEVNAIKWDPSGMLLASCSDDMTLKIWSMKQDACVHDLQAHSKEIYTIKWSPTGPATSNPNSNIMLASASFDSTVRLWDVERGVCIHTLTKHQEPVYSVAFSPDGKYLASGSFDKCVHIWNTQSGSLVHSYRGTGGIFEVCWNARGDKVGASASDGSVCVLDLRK
Assay: MeCP2-TBL1 NanoLuc luciferase complementation assay (cell-free, extracts of transfected HEK293 cells);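 also: each compound tested at 20 µM final concentration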
Type: binding, human
In short: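 Cell-free split NanoLuc: lysate of HEK293 cells co-expressing the MeCP2 C-terminal half-SmBiT and TBL1 WD domain-LgBiT, mixed 1:1 with furimazine. After 30 min at room temperature, luminescence was plate-median normalized.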

[1] = primary screen of the Asinex library, sheet "Sargen output Asinex library", one well per compound, Batch Ref. 1
[2] = primary screen of Asinex library, single well per compound
[3] = primary screen of the Asinex library, sheet "Sargen output Asinex library", one well per compound

Compound | Inhibition percent [1] [%] | Inhibition percent [2] | other results
Cc1cc(O[C@@H]2C[C@@H](NC(=O)CCC(=O)O)[C@H](N3CCc4ccccc4C3)[C@H]2O)cc(C(C)C)c1 [BDG_34049574] | 0.88 |  | 
O=C(O)CCC(=O)N[C@@H]1C[C@@H](Oc2cccc(Cl)c2)[C@H](O)[C@H]1N1CCc2ccccc2C1 [BDG_34049608] | -0.68 |  | 
O=C(O)CCC(=O)N[C@@H]1C[C@@H](Oc2cccc(C(F)(F)F)c2)[C@H](O)[C@H]1N1CCc2ccccc2C1 [BDG_34049652] |  | -0.28 | 
CN(Cc1ccccc1)[C@@H]1[C@@H](O)[C@H](Oc2cccc(C(F)(F)F)c2)C[C@H]1NC(=O)CCN [BDG_34056156] |  | -1.01 | 
O=C(O)c1cc(F)ccc1Oc1ccccc1 [BDG_34062401] | -1.72 |  | 
CC1(C)Oc2cc(OCCCNS(C)(=O)=O)ccc2[C@@H]2O[C@H](CCc3ccc(F)cc3)CC[C@H]21 [BDG_34121335] | 5.43 |  | 
CC1(Cc2ccc(F)cc2)Cc2cc(C(=O)N(CCCc3ccc(Cl)cc3)CC(=O)O)ccc2O1 (centres unmarked) [BDG_34127624] | 0.89 |  | 
COc1cccc2c1OC(C)(C)[C@H]1CC[C@H](C3CCN(C(=O)CCCC(=O)O)CC3)O[C@H]21 [BDG_34129516] |  |  | Inhibition percent [3]: -0.90%
CC1(C)C[C@H]2[C@H](CCCN2C(=O)CCCc2cn[nH]c2)N1c1cccc(C(F)(F)F)c1 [BDG_34130326] | 14.87 |  | 
O=C1CCCC[C@]2(CN(C(=O)CCCc3cn[nH]c3)C[C@H]2c2ccccc2F)N1 [BDG_34130330] |  | -3.21 | 
CC(=O)NCCCCCC(=O)N1C[C@@H](c2ccc(F)cc2)[C@@]2(CCCCC(=O)N2)C1 [BDG_34131511] |  | 3.80 | 
O=C(O)COc1cccc(C(=O)N2C[C@@H](c3ccccc3F)[C@@]3(CCCCC(=O)N3)C2)c1 [BDG_34133280] |  | 2.13 | 
CC1(C)Oc2ccccc2[C@H]2O[C@H]3CCN(C(=O)c4cccc(OCC(=O)O)c4)C[C@@H]3C[C@@H]21 [BDG_34133285] |  |  | Inhibition percent [3]: 2.74%
CC1(C)Oc2c(O)cccc2[C@H]2O[C@H]3CCN(CC(=O)N4CC(=O)Nc5ccccc54)[C@@H]3C[C@@H]21 [BDG_34134040] |  |  | Inhibition percent [3]: 2.67%
Cc1cc(O[C@@H]2C[C@@H](NC(=O)CCCC(=O)O)[C@H](N3CCc4ccccc4C3)[C@H]2O)cc(C(C)C)c1 [BDG_34135452] | -0.70 |  | 
O=C(O)CCCC(=O)N[C@@H]1C[C@@H](Oc2cccc(Cl)c2)[C@H](O)[C@H]1N1CCc2ccccc2C1 [BDG_34135462] | -0.65 |  | 
CN(Cc1ccccc1)[C@@H]1[C@@H](O)[C@H](Oc2ccc(F)c(F)c2)C[C@H]1NC(=O)CC(C)(C)CC(=O)O [BDG_34135525] |  |  | Inhibition percent [3]: 1.42%
CN(Cc1ccccc1)[C@@H]1[C@@H](O)[C@H](Oc2ccccc2F)C[C@H]1NC(=O)CC(C)(C)CC(=O)O [BDG_34135529] |  | 1.25 | 
CN(Cc1ccc(F)cc1)[C@@H]1[C@@H](O)[C@H](Oc2ccccc2F)C[C@H]1NC(=O)CC(C)(C)CC(=O)O [BDG_34135530] |  | 5.96 | 

Compound | Inhibition percent [1] [%] | Inhibition percent [2] | other results
CN(Cc1ccc(F)cc1)[C@@H]1[C@@H](O)[C@H](Oc2cccc(F)c2)C[C@H]1NC(=O)c1cccc(C(=O)O)c1 [BDG_34135616] |  | 1.33 | 
COC(=O)c1ccc(NC(=O)c2cccc(Br)c2OCC(=O)O)cc1 [BDG_51125744] | 7.09 |  | 
Cc1nc(Nc2ncc(C#N)s2)ccc1CC1COCCN(S(C)(=O)=O)C1 (centres unmarked) [BDG_51128826] |  | -0.16 | 
Cc1cc(C)n(-c2cccc(C(=O)N3C[C@@H](c4ccccc4)[C@@]4(CCCCC(=O)N4)C3)c2)n1 [BDH_20395756] |  |  | Inhibition percent [3]: -4.76%
Cc1c(F)cccc1NC(=O)CN1[C@H](Cc2ccccc2)C[C@]2(C)NC(=O)CCC[C@H]12 [BDH_24639961] | 0.80 |  | 
Cc1c(NC(=O)CN2[C@H](Cc3ccccc3)C[C@]3(C)NC(=O)CCC[C@H]23)cnn1C [BDH_24639966] |  | 0.23 | 
Cc1cc(C)nc(NCCC(=O)N2[C@H](Cc3ccccc3)C[C@]3(C)NC(=O)CCC[C@H]23)n1 [BDH_24639981] | -1.66 |  | 
Clc1cccc(Cc2cncc(C3CCCN3Cc3ccnc(N4CCOCC4)n3)n2)c1 (centres unmarked) [BDH_27227771] |  |  | Inhibition percent [3]: 3.31%
O=C1CCCC[C@]2(CN(C(=O)CCc3ccc(F)cc3)C[C@H]2c2ccccc2)N1 [BDH_32219010] |  | -1.17 | 
O=C(N1CCC2(CC1)COC(Cc1cccc(F)c1)C2)C1(c2cccc(F)c2)CCOCC1 (centres unmarked) [BDH_32247901] |  |  | Inhibition percent [3]: 0.54%
C[C@]12C[C@@H](c3ccccc3)N(CC(=O)N3CC(=O)Nc4ccccc43)[C@H]1CCCCCN2 [BDH_32250993] |  | 1.88 | 
CC(=O)N[C@@]12CN(CC(=O)Nc3cccc4c3CCCC4)CC[C@@H]1[C@@H](c1ccccc1)N(C)C2 [BDH_32251192] |  |  | Inhibition percent [3]: 4.01%
O=C1OC2(CCN(C(=O)C3(c4ccccc4)CCCC3)C2)CN1Cc1ccc(F)cc1 (centres unmarked) [BDH_32289921] |  |  | Inhibition percent [3]: 0.62%
O=C(CN1CCc2ccccc2C1)N1CCCC2(CC1)CN(c1cccc(Cl)c1)C(=O)O2 (centres unmarked) [BDH_32295686] | 0.75 |  | 
O=C(c1ccc(Cc2ccc(F)cc2)nc1)N1CCCC2(CC1)CN(c1ccccc1)C(=O)O2 (centres unmarked) [BDH_32295955] |  | -2.84 | 
COc1ccccc1Cc1ccc(C(=O)N2CCCC3(CC2)CN(c2ccccc2)C(=O)O3)cn1 (centres unmarked) [BDH_32296020] |  |  | Inhibition percent [3]: -0.57%
O=C1COC2(CCCN(C(=O)c3cccc4cccnc34)CC2)CN1CCc1ccccc1 (centres unmarked) [BDH_32296359] |  |  | Inhibition percent [3]: -0.70%
O=C(c1ccnc(Cc2cccc(F)c2)c1)N1CCC[C@]2(C[C@@H](Oc3ccc(F)cc3)CO2)C1 [BDH_32304392] |  |  | Inhibition percent [3]: 5.07%

Second part, led by results:

Inhibition percent [1] [%] | Inhibition percent [2] | Compound | other results
 | -2.31 | COc1cccc2c1OC(C)(C)[C@H]1C[C@@H]3[C@H](CCN3CC(=O)O)O[C@H]21 [BDG_34128979] | 
-1.85 |  | COc1cccc2c1OC(C)(C)[C@H]1CC[C@H](C3CCN(CC(=O)O)CC3)O[C@H]21 [BDG_34129039] | 
5.44 |  | CC1(C)Oc2cc(O)ccc2[C@@H]2O[C@@H]3CCCN(C(=O)CCCC(=O)O)[C@@H]3C[C@H]21 [BDG_34129513] | 
0.07 |  | CN(C)CCOc1cccc2c1OC(C)(C)[C@H]1C[C@H]3CN(C(=O)CCCC(=O)O)CC[C@@H]3O[C@H]21 [BDG_34129529] | 
 | 7.09 | CC1(C)Oc2c(cccc2C(F)(F)F)[C@@H]2O[C@@H]3CCN(C(=O)CCCc4cn[nH]c4)[C@@H]3C[C@H]21 [BDG_34130346] | 
 | 1.08 | CC1(C)Oc2c(O)cccc2[C@@H]2O[C@@H]3CCN(C(=O)CCCc4cn[nH]c4)C[C@@H]3C[C@H]21 [BDG_34130377] | 
 | 0.45 | CC(C)(CC(=O)O)CC(=O)N1CC[C@@H]2O[C@@H]3c4cc(Cl)ccc4OC(C)(C)[C@H]3C[C@@H]2C1 [BDG_34130555] | 
 | 3.20 | CC(=O)NCCCCCC(=O)N1CC[C@H]2O[C@H]3c4cc(C(C)(C)C)ccc4OC(C)(C)[C@@H]3C[C@@H]21 [BDG_34131400] | 
 | -0.29 | CCOc1cccc2c1OC(C)(C)[C@@H]1C[C@@H]3[C@@H](CCCN3C(=O)c3cccc(F)c3C(=O)O)O[C@@H]21 [BDG_34132357] | 
 | -3.82 | COc1ccccc1N1[C@H]2CCCN(C(=O)c3cccc(OCC(=O)O)c3)[C@H]2CC1(C)C [BDG_34133274] | 
-2.82 |  | CC1(C)Oc2ccc(O)cc2[C@H]2O[C@H]3CCN(C(=O)c4cccc(OCC(=O)O)c4)[C@@H]3C[C@@H]21 [BDG_34133313] | 
 | 1.43 | CC1(C)Oc2ccc(Cl)cc2[C@H]2O[C@H]3CCN(C(=O)c4ccccc4OCC(=O)O)C[C@H]3C[C@@H]21 [BDG_34133540] | 
 | 5.67 | CC1(C)Oc2c(O)cccc2[C@H]2O[C@H]3CCN(C(=O)c4cccc(Cn5ccnc5)c4)[C@@H]3C[C@@H]21 [BDG_34133876] | 
 | 0.92 | CC1(C)Oc2c(O)cccc2[C@@H]2O[C@@H]3CCN(C(=O)c4cccc(Cn5ccnc5)c4)[C@@H]3C[C@H]21 [BDG_34133887] | 
1.73 |  | CC1(C)Oc2ccccc2[C@@H]2O[C@@H]3CCN(C(=O)c4cccc(Cn5ccnc5)c4)C[C@@H]3C[C@H]21 [BDG_34133919] | 
2.78 |  | CC1(C)Oc2ccc(Cl)cc2[C@H]2O[C@H]3CCN(CC(=O)N4CC(=O)Nc5ccccc54)C[C@@H]3C[C@@H]21 [BDG_34134010] | 
3.72 |  | CC1(C)Oc2ccc(Cl)cc2[C@@H]2O[C@@H]3CCN(CC(=O)N4CC(=O)Nc5ccccc54)C[C@@H]3C[C@H]21 [BDG_34134082] | 
 | -0.06 | CC1(C)Oc2ccc(C(=O)O)cc2[C@H]2O[C@H]3CCSC[C@H]3C[C@@H]21 [BDG_51128812] | 
 | -1.84 | CC(=O)c1ccc(NC(=O)CN2CCC[C@@H]3O[C@@H]4c5cc(Cl)ccc5OC(C)(C)[C@H]4C[C@@H]32)cc1 [BDG_51129056] | 
 | 4.58 | COc1cccc2c1OC(C)(C)[C@@H]1C[C@H]3CN(CC(=O)Nc4ccc(C(C)=O)cc4)CC[C@H]3O[C@@H]21 [BDG_51129062] | 
 | -1.63 | C[C@]12C[C@@H](Cc3ccccc3)N(C(=O)c3cccc(Cn4cccn4)c3)[C@H]1CCCC(=O)N2 [BDH_24639058] | 
 | -0.22 | O=C(c1ccc(Cc2cccc(F)c2)nc1)N1CCCC2(CC1)CN(c1ccccc1)C(=O)O2 (centres unmarked) [BDH_32296010] | 

Reference: PMC9995496, “A screen for MeCP2-TBL1 interaction inhibitors using a luminescence-based assay” (Scientific Reports, 2023)
